This is an account of results in patent publication US20080207738A1, “DRUG COMBINATIONS TO TREAT DRUG RESISTANT TUMORS” (priority 2007, published 2008).

The subject of this experiment is CLL cells. Nature of the experiment: cells. As to conditions: Homo sapiens, CLL cell, 72 h, 72 h, CCcompound104 5 μg/ml, CCcompound26 1 μM, alone or combined. On the procedure: Heparinized peripheral-blood samples were obtained from chronic lymphocytic leukemia patients with more than 70% malignant cells after informed consent, in accordance with the Declaration of Helsinki. The blood samples (10-ml) were diluted 1:1 with cold phosphate buffered saline (PBS; 0.135 M NaCl, 2.7 mM KCl, 1.5 mM KH2PO4, 8 mM Na2HPO4 [pH 7.4]) and layered onto Ficoll-Hypaque (8-ml, specific gravity, 1.086; Life Technologies, Grand Island, N.Y.). Then, the blood was centrifuged at 433 g for 20 min, and mononuclear cells were removed from the interphase. Cells were washed twice with cold PBS and after each centrifugation step the pelleted cells were resuspended in 10-ml RPMI 1640 supplemented with 10% fetal bovine serum (inactivated for 30 min at 56° C.). A Coulter channelyzer (Coulter Electronics, Hialeah, Fla.) was used to determine the cell number. Then the number of cells was adjusted to 1×10^7 cells per 1 ml before using them for the experiments.
For the determination of relative number of viable cells before and after treatments, in most cases the MTT assay was used. This calorimetric assay is based on the ability of living cells, but not dead cells, to reduce 3-(4, 5-dimethyl thiazol-2-yl)-2, 5-diphenyltetrazolium bromide [Carmichael, J, De Graff, W. G., Gazdar, A. F., Minna, J. D. and Mitchell, J. B. (1987), “Evaluation oftetrazolium-based semiautomated calorimetric assay: Assessment of chemosensitivity testing,” Cancer Res., 47, 936-942]. For this assay, cells were plated in 96-well plates (10,000-30,000 cells in case of cultured cells, 100,000 cells in case of healthy lymphocytes, and 200,000 cells in case of chronic lymphocytic leukemia or non-Hodgkin lymphocytes) in the respective incubation media. After a 24-h resting period, the cells were treated with the test agents and then incubated (in CO2 incubator under humidified atmosphere) for 72 hours (final incubation volume, 150 μl). The MTT assay was performed both with the untreated and treated cell cultures at the conclusion of the incubation. Often, the MTT assay also was performed at the start of treatments to allow assessment of proliferation rates in the control and treated cell cultures. All data presented are the average of 4 incubations (in 4 separate wells) with the same cell population.

Structures are written as SMILES. Where two headings read alike, the source gives them in different places.

In the case of `C=CC[N+](CC)(CC)CC/C=C1/c2ccccc2Sc2ccc(C)cc21.[Br-]` [CCcompound26, N,N-Diethyl-N-allyl-3-(2-methyl-9H-thioxanthen-9-ylidene)-propan-1-aminiumbromide], the cytotoxicity at 1 µM is 3.5% (read-out: Inhibition (%) of viability, CLL patient 1); 15.8% (read-out: Inhibition (%) of viability, CLL patient 2); 66.6% (read-out: Inhibition (%) of viability, CLL patient 3); 46.2% (read-out: Inhibition (%) of viability, CLL patient 4); 10.8% (read-out: Inhibition (%) of viability, CLL patient 5); 20.9% (read-out: Inhibition (%) of viability, CLL patient 6). Moreover, the cytotoxicity at 1 µM reads like this: (read-out: Inhibition (%) of viability, CLL patient 7) 1.8%; (read-out: Inhibition (%) of viability, CLL patient 8) 9%; (read-out: Inhibition (%) of viability, CLL patient 9) 9.2%; (read-out: Inhibition (%) of viability, CLL patient 10) 40.7%; (read-out: Inhibition (%) of viability, CLL patient 11) 48.1%; (read-out: Inhibition (%) of viability, CLL patient 12) 30.4%. The cytotoxicity at 1 µM is, setting by setting: (read-out: Inhibition (%) of viability, CLL patient 13) 42.8%; (read-out: Inhibition (%) of viability, CLL patient 14) 72.7%; (read-out: Inhibition (%) of viability, CLL patient 15) 1.6%; (read-out: Inhibition (%) of viability, CLL patient 16) 50%; (read-out: Inhibition (%) of viability, CLL patient 19) 22.5%; (read-out: Inhibition (%) of viability, CLL patient 20) 0%.
